The record followed here is US20180000085A1, “USE OF PICOLINAMIDE COMPOUNDS WITH FUNGICIDAL ACTIVITY” (DOW AGROSCIENCES LLC, priority 2014, published 2018).

The structures appear in SMILES notation.

One experiment deals with Puccinia triticina. Briefly: Wheat brown rust (PUCCRT) disease control on wheat seedlings. The class given is in vivo. Details: key to PUCCRT 3DC, HV activity at 100 ppm (% control rating) / PUCCRT disease control, 3DC / PUCCRT 1DP disease control rating, HV activity / PUCCRT 3DC disease control rating, HV activity / PUCCRT 3DC, LV activity at 125.1 g/H (% Control rating) / PUCCRT 1DP, LV activity at 125.1 g/H (% Control rating) / PUCCRT 3DC disease control rating, LV activity at 125.1 g/H / PUCCRT 1DP disease control rating, LV activity at 125.1 g/H / PUCCRT 3DC disease control rating, HV activity at 100 ppm / PUCCRT 1DP disease control rating, HV activity at 100 ppm / HV activity at 100 ppm PUCCRT 3DC (disease control rating) / LV activity at 125.1 g/H PUCCRT 1DP (disease control rating) / LV activity at 125.1 g/H PUCCRT 3DC (disease control rating): A: > 80; B: ≤ 80; C: Not Tested; D: No Activity Observed in the Reported Assay. The conditions noted are these: for PUCCRT 1DP disease control rating, HV activity / PUCCRT 3DC disease control rating, HV activity: HV application at 100 ppm.

The test system of another experiment is Zymoseptoria tritici. The experiment is described as follows: Leaf blotch of wheat (SEPTTR) disease control on wheat seedlings. The class given is in vivo. Details: key to SEPTTR 1DP, HV activity at 100 ppm (% control rating) / SEPTTR 3DC, HV activity at 100 ppm (% control rating) / SEPTTR disease control, 1DP / SEPTTR disease control, 3DC / SEPTTR 1DP disease control rating, HV activity / SEPTTR 3DC disease control rating, HV activity / SEPTTR 3DC, LV activity at 125.1 g/H (% Control rating) / SEPTTR 1DP, LV activity at 125.1 g/H (% Control rating) / SEPTTR 1DP disease control rating, LV activity at 125.1 g/H / SEPTTR 3DC disease control rating, LV activity at 125.1 g/H / SEPTTR 3DC disease control rating, HV activity at 100 ppm / SEPTTR 1DP disease control rating, HV activity at 100 ppm / HV activity at 100 ppm SEPTTR 3DC (disease control rating) / HV activity at 100 ppm SEPTTR 1DP (disease control rating) / LV activity at 125.1 g/H SEPTTR 1DP (disease control rating) / LV activity at 125.1 g/H SEPTTR 3DC (disease control rating): A: > 80; B: ≤ 80; C: Not Tested; D: No Activity Observed in the Reported Assay. The conditions noted are these: for SEPTTR 1DP disease control rating, HV activity / SEPTTR 3DC disease control rating, HV activity: HV application at 100 ppm.

The mark [1] stands for this setting: 1 Day Protectant, wheat brown rust.
The mark [2] stands for this setting: 3 Day Curative, wheat brown rust.
The mark [3] stands for this setting: 1 Day Protectant, wheat leaf blotch.
Setting [4] is: 3 Day Curative, wheat leaf blotch.
Where [5] appears, read: high volume application, 100 ppm, 1 day protectant.
The mark [6] stands for this setting: high volume application, 100 ppm, 3 day curative.
[7] abbreviates: low volume application, 125.1 g/H, 1 day protectant.
[8] abbreviates: low volume application, 125.1 g/H, 3 day curative.
[9] abbreviates: low volume application, 125.1 g/H, 1 Day Protectant.
Setting [10] is: low volume application, 125.1 g/H, 3 Day Curative.

Consider `C=CC[C@@H](Oc1ccc(C(F)(F)F)cc1)[C@H](C)OC(=O)[C@H](C)NC(=O)c1nccc(OC)c1OCOC(C)=O` [Cmpd 1077], for which, in the experiment with Puccinia triticina (low volume application, 125.1 g/H, 1 Day Protectant, wheat brown rust), the “LV activity at 125.1 g/H PUCCRT 1DP (disease control rating)” value is “A (> 80)”. Besides, the “LV activity at 125.1 g/H PUCCRT 3DC (disease control rating)” value with Puccinia triticina (low volume application, 125.1 g/H, 3 Day Curative, wheat brown rust) was “B (≤ 80)”. For the same molecule, the “LV activity at 125.1 g/H SEPTTR 1DP (disease control rating)” value in the experiment on Zymoseptoria tritici (low volume application, 125.1 g/H, 1 Day Protectant, wheat leaf blotch) was “B (≤ 80)”. Besides, the “LV activity at 125.1 g/H SEPTTR 3DC (disease control rating)” value in the experiment on Zymoseptoria tritici (low volume application, 125.1 g/H, 3 Day Curative, wheat leaf blotch) was “D”.
Turning to `CC[C@H](OC)[C@@H](Oc1ccc(Cl)cc1Cl)[C@H](C)OC(=O)[C@H](C)NC(=O)c1nccc(OC)c1O` [Cmpd 402], in the experiment on Puccinia triticina (setting [1]), the “PUCCRT 1DP disease control rating, HV activity” value was “B (≤ 80)”. In addition, the “PUCCRT 3DC disease control rating, HV activity” value in the experiment on Puccinia triticina (setting [2]) is “B (≤ 80)”. Besides, the “SEPTTR 1DP disease control rating, HV activity” value in the experiment on Zymoseptoria tritici (setting [3]) was “B (≤ 80)”. Also, the “SEPTTR 3DC disease control rating, HV activity” value in the experiment on Zymoseptoria tritici (setting [4]) is “B (≤ 80)”.
As for `COc1cccc(O[C@@H]([C@H](C)OC(=O)[C@H](C)NC(=O)c2nccc(OC)c2O)C(C)(C)C)c1` [Cmpd 1015], the “PUCCRT 1DP disease control rating, HV activity at 100 ppm” value in the experiment on Puccinia triticina (setting [5]) is listed as “A (> 80)”. Besides, in the experiment with Puccinia triticina (setting [6]), the “PUCCRT 3DC disease control rating, HV activity at 100 ppm” value was “A (> 80)”. Further, the “SEPTTR 1DP disease control rating, HV activity at 100 ppm” value in the experiment on Zymoseptoria tritici (setting [5]) is “B (≤ 80)”. For the same molecule, the “SEPTTR 3DC disease control rating, HV activity at 100 ppm” value in the experiment on Zymoseptoria tritici (setting [6]) is on record as “B (≤ 80)”.
As for `CCC(CC)C(Oc1ccc(Cl)cc1Cl)C(C)OC(=O)C(CC(C)C)NC(=O)c1nccc(OC)c1OCOC(C)=O` (centres unmarked) [Cmpd 684], the “PUCCRT 1DP disease control rating, LV activity at 125.1 g/H” value in the experiment on Puccinia triticina (setting [7]) was “B (≤ 80)”. The “PUCCRT 3DC disease control rating, LV activity at 125.1 g/H” value in the experiment on Puccinia triticina (setting [8]) was “D”. The “SEPTTR 1DP disease control rating, LV activity at 125.1 g/H” value in the experiment with Zymoseptoria tritici (setting [7]) is on record as “D”. Further, the “SEPTTR 3DC disease control rating, LV activity at 125.1 g/H” value in the experiment with Zymoseptoria tritici (setting [8]) was “D”.
For the molecule `CCC(CC)[C@H](Oc1ccc(Cl)cc1Cl)[C@H](C)OC(=O)[C@H](C)NC(=O)c1nccc(OC)c1O` [Cmpd 421], the “PUCCRT 1DP disease control rating, HV activity” value in the experiment with Puccinia triticina (setting [1]) is listed as “B (≤ 80)”. Besides, the “PUCCRT 3DC disease control rating, HV activity” value with Puccinia triticina (setting [2]) is reported as “D”. Further, the “SEPTTR 1DP disease control rating, HV activity” value in the experiment on Zymoseptoria tritici (setting [3]) is reported as “B (≤ 80)”. For the same molecule, the “SEPTTR 3DC disease control rating, HV activity” value in the experiment with Zymoseptoria tritici (setting [4]) was “D”.
For the molecule `CCC(CC)[C@@H](Oc1cccc(F)c1)[C@H](C)OC(=O)[C@@H](NC(=O)c1nccc(OC)c1O)C(C)C` [Cmpd 404], the “PUCCRT 1DP disease control rating, HV activity” value with Puccinia triticina (setting [1]) was “B (≤ 80)”. Also, in the experiment with Puccinia triticina (setting [2]), the “PUCCRT 3DC disease control rating, HV activity” value is reported as “D”. In addition, the “SEPTTR 1DP disease control rating, HV activity” value in the experiment on Zymoseptoria tritici (setting [3]) is recorded as “A (> 80)”. Further, the “SEPTTR 3DC disease control rating, HV activity” value in the experiment with Zymoseptoria tritici (setting [4]) is “D”.
As for `CCC(CC)[C@@H](Oc1cccc(-c2ccccc2)c1)[C@H](C)OC(=O)[C@H](C)NC(=O)c1nccc(OC)c1OCOC(C)=O` [Cmpd 595], the “PUCCRT 1DP, LV activity at 125.1 g/H (% Control rating)” value (“PUCCRT 1DP … (% Control rating)” for short) with Puccinia triticina (setting [9]) is on record as “A (> 80)”. Also, the “PUCCRT 3DC, LV activity at 125.1 g/H (% Control rating)” value (“PUCCRT 3DC … (% Control rating)” below) in the experiment on Puccinia triticina (setting [10]) is “B (≤ 80)”. For the same molecule, the “SEPTTR 1DP, LV activity at 125.1 g/H (% Control rating)” value (shortened to “SEPTTR 1DP … (% Control rating)”) in the experiment with Zymoseptoria tritici (setting [9]) is given as “A (> 80)”. For the same molecule, the “SEPTTR 3DC, LV activity at 125.1 g/H (% Control rating)” value (“SEPTTR 3DC … (% Control rating)” for short) in the experiment on Zymoseptoria tritici (setting [10]) is “A (> 80)”.
As to `CC[C@@H](CCC(C)C)[C@H](OCC1CC1)[C@H](C)OC(=O)[C@H](C)NC(=O)c1nccc(OC)c1OCOC(C)=O` [Cmpd 503], the “PUCCRT 1DP … (% Control rating)” value with Puccinia triticina (setting [9]) is “A (> 80)”. Also, the “PUCCRT 3DC … (% Control rating)” value with Puccinia triticina (setting [10]) is reported as “A (> 80)”. Moreover, the “SEPTTR 1DP … (% Control rating)” value in the experiment with Zymoseptoria tritici (setting [9]) is “B (≤ 80)”. In addition, the “SEPTTR 3DC … (% Control rating)” value in the experiment on Zymoseptoria tritici (setting [10]) is “A (> 80)”.
On to `COc1ccnc(C(=O)NC(C)C(=O)OC(C)COCc2ccccc2)c1OCOC(C)=O` (centres unmarked) [Cmpd 520], for which the “PUCCRT 1DP … (% Control rating)” value with Puccinia triticina (setting [9]) is “B (≤ 80)”. In addition, in the experiment with Puccinia triticina (setting [10]), the “PUCCRT 3DC … (% Control rating)” value is recorded as “B (≤ 80)”. In addition, the “SEPTTR 1DP … (% Control rating)” value in the experiment on Zymoseptoria tritici (setting [9]) is given as “B (≤ 80)”. The “SEPTTR 3DC … (% Control rating)” value in the experiment on Zymoseptoria tritici (setting [10]) is recorded as “D”.
On to `COc1ccnc(C(=O)N[C@@H](C)C(=O)O[C@@H](C)[C@@H](CC(C)C)Oc2ccccc2)c1O` [Cmpd 355], for which the “PUCCRT 1DP disease control rating, HV activity” value with Puccinia triticina (setting [1]) is “A (> 80)”. Also, the “PUCCRT 3DC disease control rating, HV activity” value with Puccinia triticina (setting [2]) is on record as “A (> 80)”. For the same molecule, the “SEPTTR 1DP disease control rating, HV activity” value with Zymoseptoria tritici (setting [3]) was “A (> 80)”. In the experiment on Zymoseptoria tritici (setting [4]), the “SEPTTR 3DC disease control rating, HV activity” value was “A (> 80)”.
As to `CCC(CC)C(Oc1cccc(-c2ccccc2)c1)C(C)OC(=O)C(C)NC(=O)c1nccc(OC)c1O` (centres unmarked) [Cmpd 386], the “PUCCRT 1DP disease control rating, HV activity” value in the experiment with Puccinia triticina (setting [1]) was “B (≤ 80)”. Moreover, the “PUCCRT 3DC disease control rating, HV activity” value in the experiment on Puccinia triticina (setting [2]) was “B (≤ 80)”. In the experiment on Zymoseptoria tritici (setting [3]), the “SEPTTR 1DP disease control rating, HV activity” value is listed as “D”. For the same molecule, the “SEPTTR 3DC disease control rating, HV activity” value in the experiment with Zymoseptoria tritici (setting [4]) is given as “D”.
